Measured values published in paper PMC9304322, “Targeting retinoic acid receptor alpha-corepressor interaction activates chaperone-mediated autophagy and protects against retinal degeneration” (Nature Communications, 2022).
Values joined by “and” are separate entries in the source; they are usually repeats but may differ in a detail not shown here. Identical values can stand only once. Like-named read-outs stand apart in the source and are kept apart here.

Legend:
[1] = system: NIH3T3 cells control (empty vector) or knock-down (KD) for N-CoR1; assay: CMA activity in NIH3T3 control or knock-down for N-CoR1; assay type: cell-based, mouse; parameters: CMA activity: unit not given here; details: for CMA activity: Fig. 2h, individual replicate values
Method: NIH3T3 mouse fibroblasts (CRL-1658), CaCo2 cells human colorectal adenocarcinoma (HTB-3), and the N2a neuroblastoma cell line (CCL-131) were obtained from the American Type Culture Collection and were validated by genomic PCR. Primary human fibroblasts (GM01651) were from Coriell Repository. Cells were cultured to full confluence in a 37 °C incubator with 5% CO2 in complete Dulbecco’s modified Eagle’s medium (DMEM, Sigma #D5030) supplemented with 10% heat-inactivated newborn calf serum (HyClone #SH30401.02HI), 1% penicillin/streptomycin/fungizone (Invitrogen, #10072322). All the cell lines were tested for mycoplasma contamination using DNA staining protocol with Hoechst 33258 dye and none of them was found positive. Knock-down of Ncor1 was done using lentiviral mediated shRNA (SHCLNG-NM_011308) from the Sigma Mission library following standard procedures. The efficiency of knock-down was tested by immunoblot. Cell viability was measured using the CellTiter-Blue kit (Promega, #G9241) 24 h after the addition of the different stressors according to the manufacturer’s instructions. All cell lines were validated by genomic PCR.
Cells were transduced with lentivirus carrying the KFERQ-PS-Dendra reporter as before. Cells were photoactivated by exposure to a 3.5 mA (current constant) light emitting diode (LED: Norlux, 405 nm) for 3 min and then plated in glass-bottom 96 well plates. At the desired times, cells were fixed with 4% PFA and imaged using high-content microscopy (Operetta system, Perkin Elmer). Images were quantified using the manufacturer’s software in a minimum of 1,200 cells in 9 independent fields per well. […] This was particularly important in the case of primary human cells where the efficiency of transduction was ~65%. To avoid confounding effects for drug-induced changes in cell volume or adherence to the plate that could bring a fraction of the cells per field outside of focus, we set a threshold to count only […] that have at least 1/10 of the average number of […] detected in the untreated wells for each cell type (3–4 puncta/cell in the case of NIH3T3 and N2a cells and 5 puncta/cell in primary human fibroblasts).

[2] = Pharmacokinetic analysis, plasma and brain;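 on Fig. 3a level, MEAN: plasma concentration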;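 on Fig. 3a level, single animals 1-3: plasma concentration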;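 on Fig. 3b level, MEAN: brain concentration in ng/g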;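 on Fig. 3b level, single animals 1-3: brain concentration in ng/g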; assay type: in vivo, ICR (CD-1) male mice; parameters: Fig. 3a level, single animals 1-3 / Fig. 3a level, MEAN / Fig. 3b level, single animals 1-3 / Fig. 3b level, MEAN: unit not given here; details: for Kp at 0.083 h / Kp at 0.25 h / Kp at 0.5 h / Kp at 1 h / Kp at 2 h / Kp at 4 h / Kp at 8 h / Kp at 24 h / half-life: male, ICR (CD-1), mouse; for half-life: mice
Method: ICR (CD-1) male mice were fasted at least three hours and water was available ad libitum before the study. Animals were housed in a controlled environment, target conditions: temperature 18 to 29 °C, relative humidity 30 to 70%. Temperature and relative humidity was monitored daily. An electronic time-controlled lighting system was used to provide a 12 h light/12 h dark cycle. 3 mice for each indicated time point were administered 30 mg/Kg CA39 or CA77 by oral gavage or 1 mg/Kg CA39 or CA77 by intravenous injection using 30% PEG-400, 65% D5W (5% dextrose in water), 5% Tween-80 vehicle. Mice were sacrificed, and brain samples were harvested at […], 0.25 h, 0.5 h, 1 h, 2 h, 4 h, 8 h, 24 h, and analyzed for CA39 or CA77 levels using LC-MS/MS. Pharmacokinetics parameters were calculated using Phoenix WinNonlin 6.3. Experiments performed at SIMM-SERVIER joint Biopharmacy Laboratory.

## Clc1ccc2c(c1)OCC(c1ccc(-c3ccccc3)cc1)=N2 [CA39]
[1]; 20μM for 24 h
  activating effect on CMA upon knock-down of NCOR1: completely ablated
[1]; Ctr cells
  CMA activity: 28.3 and 30.0 and 31.5
[1]; NCOR(-) (NCoR1 KD) cells
  CMA activity: 3.7 and 5.0 and 5.1
[2]; IV, Time 0.083 h
  Fig. 3a level, MEAN: 61.1254
  Fig. 3b level, MEAN: 61.1254
[2]; IV, Time 0.25 h
  Fig. 3a level, MEAN: 57.4762
  Fig. 3a level, single animals 1-3: 71.3655 and 52.5276 and 48.5355
  Fig. 3b level, MEAN: 421.667
  Fig. 3b level, single animals 1-3: 231 and 301 and 733
[2]; IV, Time 0.5 h
  Fig. 3a level, MEAN: 96.4163
  Fig. 3a level, single animals 1-3: 97.156 and 95.5316 and 96.5614
  Fig. 3b level, single animals 1-3: 253.229 and 219.924 and 96.4385
[2]; IV, Time 1 h
  Fig. 3a level, single animals 1-3: 65.9772 and 7.434 and 72.9585
  Fig. 3b level, single animals 1-3: 838.595 and 293.717 and 133.533
[2]; IV, Time 2 h
  Fig. 3a level, MEAN: 127.026
  Fig. 3a level, single animals 1-3: 125.63 and 157.282 and 98.1671
  Fig. 3b level, MEAN: 775.11
  Fig. 3b level, single animals 1-3: 875.96 and 812.85 and 636.52
[2]; IV, Time 4 h
  Fig. 3a level, MEAN: 46.5654
  Fig. 3a level, single animals 1-3: 39.4404 and 55.2956 and 44.9603
  Fig. 3b level, MEAN: 580.088
  Fig. 3b level, single animals 1-3: 625.12 and 582.925 and 532.22
[2]; IV, Time 8 h
  Fig. 3a level, single animals 1-3: 53.1345 and 36.7923 and 35.4264
  Fig. 3b level, single animals 1-3: 688.34 and 475.587 and 740.905
[2]; IV, Time 24 h
  Fig. 3a level, MEAN: 8.834
  Fig. 3a level, single animals 1-3: 7.122 and 12.7302 and 6.65
  Fig. 3b level, single animals 1-3: 137.514 and 156.133 and 197.201
[2]; P.O., Time 0.25 h, individual animals
  B/P, Brian/Plasma: 3.427 and 5.487
[2]; P.O., Time 0.5 h, individual animals
  B/P, Brian/Plasma: 1.74 and 1.607
[2]; P.O., Time 1 h, individual animals
  B/P, Brian/Plasma: 6.477 and 4.807
[2]; P.O., Time 2 h, individual animals
  B/P, Brian/Plasma: 7.798 and 6.806
[2]; P.O., Time 4 h, individual animals
  B/P, Brian/Plasma: 5.185 and 9.171 and 14.1075
[2]; P.O., Time 8 h, individual animals
  B/P, Brian/Plasma: 9.709 and 14.5255
[2]; P.O., Time 24 h, individual animals
  B/P, Brian/Plasma: 21.0683
[2]; PO, Time 0.25 h
  Fig. 3b level, MEAN: 110.007
  Fig. 3b level, single animals 1-3: 143.332 and 91.145 and 95.5425
[2]; PO, Time 0.5 h
  Fig. 3b level, MEAN: 246.705
  Fig. 3b level, single animals 1-3: 250.188 and 244.993 and 244.933
[2]; PO, Time 1 h
  Fig. 3b level, single animals 1-3: 302.13 and 49.5585 and 266.305
[2]; PO, Time 2 h
  Fig. 3a level, MEAN: 103.157
  Fig. 3a level, single animals 1-3: 111.712 and 104.237 and 93.5216
  Fig. 3b level, MEAN: 582.568
  Fig. 3b level, single animals 1-3: 673.81 and 487.02 and 586.875
[2]; PO, Time 4 h
  Fig. 3a level, MEAN: 73.9526
  Fig. 3a level, single animals 1-3: 120.568 and 63.5639 and 37.7259
  Fig. 3b level, MEAN: 609.462
  Fig. 3b level, single animals 1-3: 583.44 and 598.755 and 646.19
[2]; PO, Time 8 h
  Fig. 3a level, single animals 1-3: 41.4288 and 48.9846 and 51.0072
  Fig. 3b level, single animals 1-3: 620.035 and 487.115 and 529.995
[2]; PO, Time 24 h
  Fig. 3a level, MEAN: 11.2914
  Fig. 3a level, single animals 1-3: 11.8674 and 7.411 and 14.5959
  Fig. 3b level, MEAN: 118.958
  Fig. 3b level, single animals 1-3: 104.574 and 178.19 and 74.11
[2]; i.v., Time 0.083 h, individual animals
  B/P, Brian/Plasma: 1.236 and 1.666
[2]; i.v., Time 0.25 h, individual animals
  B/P, Brian/Plasma: 1.735 and 1.969
[2]; i.v., Time 0.5 h, individual animals
  B/P, Brian/Plasma: 2.565 and 2.537
[2]; i.v., Time 1 h, individual animals
  B/P, Brian/Plasma: 6.667 and 3.6501
[2]; i.v., Time 2 h, individual animals
  B/P, Brian/Plasma: 3.096 and 5.978
[2]; i.v., Time 4 h, individual animals
  B/P, Brian/Plasma: 10.8283 and 14.3725
[2]; i.v., Time 8 h, individual animals
  B/P, Brian/Plasma: 13.2396 and 14.9605
[2]; i.v., Time 24 h, individual animals
  B/P, Brian/Plasma: 13.9974
[2]; brain, iv, 1 mg/Kg, i.v., Time 0.083 h, individual animals, read-out: B/P, Brian/Plasma
  Kp at 0.083 h: 1.37
[2]; brain, iv, 1 mg/Kg, i.v., Time 0.083 h, mean, read-out: B/P, Brian/Plasma, Mean
  Kp at 0.083 h: 1.42
[2]; brain, iv, 1 mg/Kg, i.v., Time 0.25 h, individual animals, read-out: B/P, Brian/Plasma
  Kp at 0.25 h: 2.01
[2]; brain, iv, 1 mg/Kg, i.v., Time 0.25 h, mean, read-out: B/P, Brian/Plasma, Mean
  Kp at 0.25 h: 1.9
[2]; brain, iv, 1 mg/Kg, i.v., Time 0.5 h, individual animals, read-out: B/P, Brian/Plasma
  Kp at 0.5 h: 2.58
[2]; brain, iv, 1 mg/Kg, i.v., Time 0.5 h, mean, read-out: B/P, Brian/Plasma, Mean
  Kp at 0.5 h: 2.56
[2]; brain, iv, 1 mg/Kg, i.v., Time 1 h, individual animals, read-out: B/P, Brian/Plasma
  Kp at 1 h: 4.58
[2]; brain, iv, 1 mg/Kg, i.v., Time 1 h, mean, read-out: B/P, Brian/Plasma, Mean
  Kp at 1 h: 4.11
[2]; brain, iv, 1 mg/Kg, i.v., Time 2 h, individual animals, read-out: B/P, Brian/Plasma
  Kp at 2 h: 5.36
[2]; brain, iv, 1 mg/Kg, i.v., Time 2 h, mean, read-out: B/P, Brian/Plasma, Mean
  Kp at 2 h: 4.81
[2]; brain, iv, 1 mg/Kg, i.v., Time 4 h, individual animals, read-out: B/P, Brian/Plasma
  Kp at 4 h: 14.8
[2]; brain, iv, 1 mg/Kg, i.v., Time 4 h, mean, read-out: B/P, Brian/Plasma, Mean
  Kp at 4 h: 13.3
[2]; brain, iv, 1 mg/Kg, i.v., Time 8 h, individual animals, read-out: B/P, Brian/Plasma
  Kp at 8 h: 11.7
[2]; brain, iv, 1 mg/Kg, i.v., Time 8 h, mean, read-out: B/P, Brian/Plasma, Mean
  Kp at 8 h: 13.3
[2]; brain, iv, 1 mg/Kg, i.v., Time 24 h, individual animals, read-out: B/P, Brian/Plasma
  Kp at 24 h: 14.7
[2]; brain, iv, 1 mg/Kg, i.v., Time 24 h, mean, read-out: B/P, Brian/Plasma, Mean
  Kp at 24 h: 14.2
[2]; brain, po, 30 mg/Kg, P.O., Time 0.25 h, individual animals, read-out: B/P, Brian/Plasma
  Kp at 0.25 h: 4.01
[2]; brain, po, 30 mg/Kg, P.O., Time 0.25 h, mean, read-out: B/P, Brian/Plasma, Mean
  Kp at 0.25 h: 4.31
[2]; brain, po, 30 mg/Kg, P.O., Time 0.5 h, individual animals, read-out: B/P, Brian/Plasma
  Kp at 0.5 h: 1.82
[2]; brain, po, 30 mg/Kg, P.O., Time 0.5 h, mean, read-out: B/P, Brian/Plasma, Mean
  Kp at 0.5 h: 1.72
[2]; brain, po, 30 mg/Kg, P.O., Time 1 h, individual animals, read-out: B/P, Brian/Plasma
  Kp at 1 h: 5.37
[2]; brain, po, 30 mg/Kg, P.O., Time 1 h, mean, read-out: B/P, Brian/Plasma, Mean
  Kp at 1 h: 5.55
[2]; brain, po, 30 mg/Kg, P.O., Time 2 h, individual animals, read-out: B/P, Brian/Plasma
  Kp at 2 h: 7.84
[2]; brain, po, 30 mg/Kg, P.O., Time 2 h, mean, read-out: B/P, Brian/Plasma, Mean
  Kp at 2 h: 7.48
[2]; brain, po, 30 mg/Kg, P.O., Time 4 h, mean, read-out: B/P, Brian/Plasma, Mean
  Kp at 4 h: 9.49
[2]; brain, po, 30 mg/Kg, P.O., Time 8 h, individual animals, read-out: B/P, Brian/Plasma
  Kp at 8 h: 16.6
[2]; brain, po, 30 mg/Kg, P.O., Time 8 h, mean, read-out: B/P, Brian/Plasma, Mean
  Kp at 8 h: 13.6
[2]; brain, po, 30 mg/Kg, P.O., Time 24 h, individual animals, read-out: B/P, Brian/Plasma
  Kp at 24 h: 11.6
[2]; brain, po, 30 mg/Kg, P.O., Time 24 h, mean, read-out: B/P, Brian/Plasma, Mean
  Kp at 24 h: 17.9
[2]; brain, IV 1 mg/kg, read-out: Half-life in brain (converted)
  half-life: 8 h
[2]; brain, PO 30 mg/kg, read-out: Half-life in brain (converted)
  half-life: 10 h
[2]; plasma, IV 1 mg/kg, read-out: Half-life in plasma (converted)
  half-life: 8.2 h
[2]; plasma, PO 30 mg/kg, read-out: Half-life in plasma (converted)
  half-life: 7.5 h
